Publication PMC8908504 (ACS Omega, 2022)
“Also recorded” adds a separate entry of the source. Like-named read-outs stand apart in the source and are kept apart here. Marks after values point to notes of the source that are not given here.

Key:
KV7.2/3 channel [1] = target: T1, KV7.2/3 channel (Homo sapiens, UniProt O43525+O43526); assay: KV7.2/3 channel opening assay (thallium-sensitive fluorescence); format: cell-based; details: for potency relative to flupirtine: KV7.2/3 opening, EC50 compared with flupirtine
Experimental: To evaluate the biological activity, the synthesized analogues were tested on HEK293 cells overexpressing the KV7.2/3 channel. The measurement was carried out in a fluorescence-based assay in which a thallium-sensitive dye generated the fluorescence signal. Due to its similarity to potassium, thallium can also pass through KV7 channels. The intensity of the fluorescence signal correlates with the amount of intracellular thallium and thus with the ability of the compounds to open KV7 channels. To determine the potency, the fluorescence intensity was measured as a function of the compound concentration. The efficacy was determined relative to the maximum fluorescence signal induced by flupirtine. For a summary of the activity data, see Table 2.
The cell culture of the KV7.2/3 transfected HEK293 cells (HEK293 KCNQ2/3 cells from SB Drug Discovery, Glasgow, UK) used for the assay and the processing of the obtained data were performed as described in earlier work.[27],[29] Briefly, 60,000 cells/well were seeded into 96-well microtiter plates for fluorescence-based assays (4titude Vision Plate Black 96-Well microtiter plates from ThermoScientic) and incubated for 24 h. After incubation, the medium was changed to 200 μL/well loading buffer containing 5 mmol/L probenecid and incubated for 1 h at room temperature. Subsequently, the test compounds dissolved in DMSO were added to the wells to the desired concentrations and further incubated for 30 min. As a control, the loading buffer with a DMSO concentration corresponding to the substance samples (1% (V/V)) was used. Fluorescence measurements were performed on the Infinite F200 Pro plate reader (Tecan) set at […]/emission wavelengths of 485 and 535 nm, respectively. After measuring the background fluorescence (baseline) for 20 s, a stimulus buffer (25 mmol/L K^+, 15 mmol/L Tl^+) was added just before the fluorescence of each well was measured.
The calculations to obtain dose–response curves were performed in the same manner as in previous investigations.[27],[29] Briefly, the fluorescence intensity was normalized with the baseline signal (F/F0) at each time of signal acquisition. To obtain the corrected negative control, a value of 1 was subtracted from the normalized value of the negative control. Subsequently, the value of the corrected negative control was subtracted from the maximum (corr. F/F0) value of a compound in a defined concentration (corr. ΔF/F0) and then plotted against the logarithmic concentration. The EC50 value was calculated as relative values with GraphPad Prism 6 (La Jolla, CA, USA), that is, the inflection points of the sigmoidal curves. The Emax value, the maximum response, indicates the intrinsic activity of a compound. This value was determined relative to flupirtine (1), where the maximum corr. ΔF/F0 value of flupirtine (1) was defined as 100%. The EC50 and Emax value of a compound is the mean of at least three independent experiments ± standard deviation (SD).

TAMH cells [2] = assay: MTT cell viability assay, TAMH cells; details: TAMH cells, MTT assay, 24 h exposure; for LD25: 25% reduction of viability; for LD50: 50% reduction of viability
From the text: (§1) In addition to the activity, basic toxicological properties of the newly synthesized compounds were also investigated by using the 3-(4,5-dimethylthiazol-2-yl)-2,5-diphenyltetrazolium bromide (MTT) cell viability assay on mouse TAMH and human HEP-G2 hepatic cell lines (see Table 2). Both cell lines are established for the evaluation of hepatotoxicity.[42],[43]
(§2) The culturing of the mouse liver TAMH and human liver cancer HEP-G2 cell lines and the MTT assay used to evaluate cell viability were carried out as previously described elsewhere in detail.[27],[29] […] The medium in the wells was then replaced with the medium containing the compounds. Control wells contained an equivalent number of cells and 1% (v/v) DMSO. Wells without cells were used to determine the background optical density (OD) and were treated as the control wells. After 24 or 48 h of incubation with the compound, the respective medium was replaced with a fresh medium supplemented with 10% (v/v) of a 2.5 mg/mL solution of MTT. The plates were incubated for 4 h. Then, the culture medium was carefully aspirated off and 50 μL of DMSO was added to each well to dissolve the formazan crystals. The ODs of each well were measured at λ = 570 nm with a SpectraMax 190 microplate reader.
(§3) The calculated T/Ccorr. values were plotted against the log(concentration). The LD50 and LD25 values were determined by using GraphPad Prism 6. […] The values are given as the mean with SD of at least three independent experiments.

HEP-G2 cells [3] = assay: MTT cell viability assay, HEP-G2 cells; details: HEP-G2 cells, MTT assay, 24 h exposure; for LD25: 25% reduction of viability; for LD50: 50% reduction of viability
From the text: as §1, §2, §3

[4] = log D7.4 estimation by HPLC-based method; format: physicochemical
Experimental: The log D7.4 values were estimated using a common HPLC-based method in accordance with guideline OPPTS 830.7570 of the United States Environmental Protection Agency (EPA). The HPLC measurements were performed with a Phenomenex Luna 5 μm Phenyl-Hexyl 100 Å column (150 × 4.6 mm). […]. Uracil was used to measure the unretained peak time. To obtain a calibration function, the logarithm of the capacity factors for the reference substances was then plotted against the corresponding log P values taken from the mentioned guideline, which are equivalent to the log D7.4 values for non-ionizable compounds like the reference substances used for calibration. With this calibration function, it was possible to estimate the log D7.4 value from the corresponding retention time for each compound to be tested. For the measurement, 2 mg of the reference substances was each dissolved in 1 mL of methanol. A reference mixture was then obtained by combining 50 μL of each reference solution. The reference mixture was measured before and after the substances to be tested. The mean value from both measurements was used for the calibration line. The substances to be tested were injected as a solution in methanol (2 mg/mL), and the retention time was determined as the mean value from two measurements.

[5] = Maximum concentration without precipitation in MTT assay buffer; format: physicochemical
From the text: A limitation in the in vitro toxicity testing was the occasional poor water solubility of the analogues.

KV7.2/3 channel [6] = target: T1, KV7.2/3 channel; details: cited from earlier work
[7] = parameters: method as in guideline OPPTS 830.7570 (EPA); details: reference substances for calibration; log P values; ref guideline OPPTS 830.7570 (EPA); cited from earlier work
TAMH cells [8] = details: MTT assay, 24 h exposure; cited from earlier work
HEP-G2 cells [9] = details: MTT assay, 24 h exposure; cited from earlier work
[10] = HPLC, Phenomenex Luna 5 μm Phenyl-Hexyl column, pH 7.4, HPLC, mean of two calibrations, read-out: logD7.4 (mean)
[11] = HPLC, Phenomenex Luna 5 μm Phenyl-Hexyl column, pH 7.4, estimated by HPLC-based method, pH 7.4, read-out: log D7.4

T1 sequence (O43526 whole entry): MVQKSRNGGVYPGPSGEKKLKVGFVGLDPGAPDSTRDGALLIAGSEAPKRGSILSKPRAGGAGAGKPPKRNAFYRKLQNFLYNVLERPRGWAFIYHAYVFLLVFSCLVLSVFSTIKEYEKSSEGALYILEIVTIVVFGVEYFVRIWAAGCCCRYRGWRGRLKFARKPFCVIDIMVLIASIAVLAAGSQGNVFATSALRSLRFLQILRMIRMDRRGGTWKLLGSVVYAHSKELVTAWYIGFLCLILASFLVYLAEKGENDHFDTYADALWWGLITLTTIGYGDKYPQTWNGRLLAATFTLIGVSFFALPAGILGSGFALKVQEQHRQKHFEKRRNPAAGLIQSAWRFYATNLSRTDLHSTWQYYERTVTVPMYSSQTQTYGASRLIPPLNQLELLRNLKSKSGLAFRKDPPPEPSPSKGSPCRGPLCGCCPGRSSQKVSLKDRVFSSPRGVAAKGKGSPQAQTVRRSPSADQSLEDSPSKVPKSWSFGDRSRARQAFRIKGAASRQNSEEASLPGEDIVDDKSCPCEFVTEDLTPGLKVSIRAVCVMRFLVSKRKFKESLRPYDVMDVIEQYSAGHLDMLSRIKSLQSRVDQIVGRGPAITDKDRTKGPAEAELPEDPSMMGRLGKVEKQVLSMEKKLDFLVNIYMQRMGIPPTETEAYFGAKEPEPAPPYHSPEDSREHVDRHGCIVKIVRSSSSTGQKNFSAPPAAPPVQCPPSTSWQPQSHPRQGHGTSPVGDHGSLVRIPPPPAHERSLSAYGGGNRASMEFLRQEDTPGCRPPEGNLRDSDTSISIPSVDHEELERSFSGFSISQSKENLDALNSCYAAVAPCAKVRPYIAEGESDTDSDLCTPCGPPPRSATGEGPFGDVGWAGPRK
T1 sequence (O43525 whole entry): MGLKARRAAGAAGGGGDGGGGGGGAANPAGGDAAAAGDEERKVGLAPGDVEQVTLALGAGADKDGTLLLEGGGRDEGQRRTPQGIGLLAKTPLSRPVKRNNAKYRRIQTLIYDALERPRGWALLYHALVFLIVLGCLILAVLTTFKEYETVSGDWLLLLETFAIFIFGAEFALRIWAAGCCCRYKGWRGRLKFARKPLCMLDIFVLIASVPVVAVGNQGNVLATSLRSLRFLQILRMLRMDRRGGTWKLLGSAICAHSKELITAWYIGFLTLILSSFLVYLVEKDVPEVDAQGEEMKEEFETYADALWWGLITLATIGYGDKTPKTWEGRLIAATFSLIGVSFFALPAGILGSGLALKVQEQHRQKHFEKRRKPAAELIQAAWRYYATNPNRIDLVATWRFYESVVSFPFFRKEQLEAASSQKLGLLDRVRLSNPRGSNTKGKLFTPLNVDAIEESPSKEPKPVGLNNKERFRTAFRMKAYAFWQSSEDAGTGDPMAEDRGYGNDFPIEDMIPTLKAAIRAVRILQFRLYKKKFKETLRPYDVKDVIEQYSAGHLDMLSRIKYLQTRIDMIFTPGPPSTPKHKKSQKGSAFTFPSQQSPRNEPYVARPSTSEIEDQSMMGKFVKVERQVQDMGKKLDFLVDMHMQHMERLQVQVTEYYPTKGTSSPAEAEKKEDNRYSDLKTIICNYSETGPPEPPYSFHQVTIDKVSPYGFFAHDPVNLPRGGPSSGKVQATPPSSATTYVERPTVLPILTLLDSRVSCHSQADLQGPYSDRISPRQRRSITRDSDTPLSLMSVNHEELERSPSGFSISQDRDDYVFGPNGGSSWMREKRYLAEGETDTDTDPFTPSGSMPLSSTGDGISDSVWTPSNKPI

For `COc1nc(NCc2ccc(F)cc2)cc(C)c1C(=O)NCc1ccc(F)cc1` [36b, N-(4-Fluorobenzyl)-6-[(4-fluorobenzyl)amino]-2-methoxy-4-methylnicotinamide], the EC50 (KV7.2/3 channel [1]; HEK293 cells overexpressing KV7.2/3, concentration for half-maximal channel opening, mean ± SD, ≥3 determinations) was 310 nM, the efficacy (KV7.2/3 channel [1]; HEK293 cells overexpressing KV7.2/3, relative to maximum signal of flupirtine (=100%)) was 105 ± 12% and the “potency relative to flupirtine” value (KV7.2/3 channel [1]) was “about six times more potent than flupirtine; also recorded: six times as potent as flupirtine”. The “potency relative to flupirtine” value (KV7.2/3 channel [1]; listed as N-(4-fluorobenzyl)-6-[(4-fluorobenzyl)amino]-2-methoxy-4-methylnicotinamide) was “six times as active as flupirtine”, the LD25 (TAMH cells [2]) was over 63 µM and the LD50 (TAMH cells [2]) was over 63 µM. It also gave an LD25 (HEP-G2 cells [3]) of over 16 µM, an LD50 (HEP-G2 cells [3]) of over 16 µM and a chromatographic logD ([4]; HPLC, Phenomenex Luna 5 μm Phenyl-Hexyl column, pH 7.4, HPLC, calibration A1, read-out: logD7.4) of 4.13. The chromatographic logD ([4]; HPLC, Phenomenex Luna 5 μm Phenyl-Hexyl column, pH 7.4, HPLC, calibration B1, read-out: logD7.4) was 4.09, the chromatographic logD [4, 10] was 4.1 and the chromatographic logD [4, 11] was 4.1. For the same compound, the “maximum concentration achieved without precipitating” value [5] was 63 µM.

In the case of `O=C(Cc1cc(F)cc(F)c1)Nc1ccc(N2CCOCC2)nc1N1CCOCC1` [compound 49], the EC50 (KV7.2/3 channel [6]; KV7.2/3, lead structure from previous work, read-out: EC50) is given as 11 nM.

In the case of `Cc1cc(NCc2ccc(F)cc2)[nH]c(=O)c1C(=O)NCc1ccc(F)cc1` [compound 37, N-(4-Fluorobenzyl)-6-[(4-fluorobenzyl)amino]-4-methyl-2-oxo-1,2-dihydropyridine-3-carboxamide], the melting point is reported as 196 °C.

For `c1ccc(N(c2ccccc2)c2ccccc2)cc1` [Triphenylamine], the “logD (Lit.)” value [7] is given as 5.7.

`CCOC(=O)Nc1ccc(NCc2ccc(F)cc2)cc1N` [compound 2, retigabine] showed a chromatographic logD ([4]; pH 7.4, HPLC, calibration C, read-out: logD7.4) of 2.05, a chromatographic logD ([4]; pH 7.4, HPLC, calibration D, read-out: logD7.4) of 2.06 and a chromatographic logD ([4]; pH 7.4, HPLC, mean of two calibrations, read-out: logD7.4 (mean)) of 2.1. For the same compound, the chromatographic logD ([4]; pH 7.4, estimated by HPLC-based method, pH 7.4, read-out: log D7.4) was 2.1, the EC50 (KV7.2/3 channel [6]; HEK293 cells overexpressing KV7.2/3, mean ± SD) was 147 ± 12 nM and the efficacy (KV7.2/3 channel [6]; HEK293 cells overexpressing KV7.2/3, relative to flupirtine) was 134 ± 16 ^f %. The LD50 (TAMH cells [8]) was >400 ^f μM, the LD25 (HEP-G2 cells [9]) was 269 ± 166 ^f μM and the LD50 (HEP-G2 cells [9]) was >400 ^f μM.

In the case of `COc1cc(NCc2ccc(F)cc2)ccc1C(=O)NCc1ccc(F)cc1` [28b, N-(4-Fluorobenzyl)-4-[(4-fluorobenzyl)amino]-2-methoxybenzamide], the EC50 (KV7.2/3 channel [1]; HEK293 cells overexpressing KV7.2/3, footnote e) is reported as over 10000 nM, the “KV7.2/3 channel opening activity (in words)” value (KV7.2/3 channel [1]; inactive = no channel opening activity detected up to a concentration of 10 μM) is reported as “inactive” and the LD25 (TAMH cells [2]) is reported as over 8 µM. It also gave an LD50 (TAMH cells [2]) of over 8 µM, an LD25 (HEP-G2 cells [3]) of over 8 µM and an LD50 (HEP-G2 cells [3]) of over 8 µM. The chromatographic logD ([4]; HPLC, Phenomenex Luna 5 μm Phenyl-Hexyl column, pH 7.4, HPLC, calibration C, read-out: logD7.4) was 4.28, the chromatographic logD ([4]; HPLC, Phenomenex Luna 5 μm Phenyl-Hexyl column, pH 7.4, HPLC, calibration D, read-out: logD7.4) was 4.29 and the chromatographic logD [4, 10] was 4.3. It also gave a chromatographic logD [4, 11] of 4.3.
